How the values were obtained:
[1] = system: PMF oocytes; assay: DNA damage assay, γH2AX staining; type: in vivo, mouse; details: ovaries removed 12 h after Cy, alone or co-treated; FIG. 7A
Description: BALB/c female mice aged 12 days or 8 weeks (Envigo, Israel) were given a single intraperitoneal injection of 200 μl of PBS or an equal volume of 150 mg/kg Cy (Sigma-Aldrich), 5 mg/kg temsirolimus (Selleck Chemicals; 5 doses in 7 days before Cy treatment, Bozec et al., 2011; Wan et al., 2006) or 5 μg/mouse human C-terminus recombinant AMH (rAMH R&D Systems), 5 doses in 24 hours—every 6 hours following the administration of Cy (Roness et al., 2019). Ovaries were collected either 12 or 24 hours after Cy treatment for protein analysis and histochemical staining, and 3 or 21 days after Cy treatment for H&E staining and follicle counts. Ovaries were removed and placed immediately into either RNA later solution or 4% paraformaldehyde. All procedures were approved by the Institutional Animal Care and Use Institutional Ethics Committee.
DNA damage assay: Sample sections (5μ) from ovaries removed 12h after Cy treatment were stained for DNA damage evaluation with γH2AX antibody, and all the PMF oocytes were classified as positive/negative for DNA damage. Oocytes were counted from 6-8 ovaries and the ratio of stained oocytes to total oocytes was calculated.

[2] = system: PMF oocytes; assay: Apoptosis assay, cPARP staining; type: in vivo, mouse; details: ovaries removed 24 h after Cy, alone or co-treated; FIG. 7B
Description: Apoptosis assay: Sample sections (5μ) from ovaries removed 24h after Cy treatment were stained for apoptotic marker cPARP antibody, and all the PMF oocytes were classified as positive/negative for apoptosis. Oocytes were counted from 6-8 ovaries and the ratio of stained oocytes to total oocytes was calculated.

[3] = system: primordial follicles (PMF); assay: In vivo mouse model of Cy-induced follicle depletion, follicle counting (H&E)
Description: Ovaries removed 12 h, 24h, 3 days or 21 days following Cy treatment were fixed in PFA, paraffin-embedded and serially sectioned (5-μm).
Follicle counting: H&E staining was used for differential follicle counts in ovaries removed 3 and 21 days following Cy treatment and conducted as previously described. […] Atretic follicles were not calculated. Only follicles with non-atretic and healthy granulosa cells were counted for total number

[4] = system: mTOR; assay: Western blotting of whole ovaries, pmTOR/mTOR; type: in vivo, mouse; details: whole ovaries 24 hours after Cy 150 mg/kg, alone or co-treated
[5] = system: primary follicles; assay: Proliferation assay, Ki-67 staining of primary follicles; type: in vivo, mouse
Description: Mild proliferation: 1-2 granulosa cells per follicle stained for Ki-67. Extensive proliferation: 3 or more granulosa cells per follicle stained for Ki-67. An average number of primary follicles stained in each category in 2-3 sections per ovary was calculated.

[6] = system: rpS6; assay: Western blotting of whole ovaries, prpS6/rpS6; type: in vivo, mouse; details: whole ovaries 24 hours after Cy 150 mg/kg, alone or co-treated
[7] = 3 cycles of mating after Cy, alone or co-treated
[8] = system: primordial follicles (PMF); assay: Ex vivo culture of neonatal mouse ovaries with PM, PMF counting (H&E); type: cell-based; details: ex vivo ovaries of 12 days mice, PM 4 hours, with or without 400 nM Tem; FIG. 2A
[9] = Cy 150 mg/kg, with or without Tem, FIG. 3B

Structure (SMILES): O=P1(N(CCCl)CCCl)NCCCO1 (stereo not shown) [Cy, cyclophosphamide]
- PMF oocytes stained positive for γH2AX (DNA damage) [1]: more than 90%
- PMF oocytes stained positive for cPARP (apoptosis) [2]: 22%
- PMF loss ([3]; mouse, in vivo): 77%
- PMFs 3 days after Cy treatment ([3]; mouse, in vivo): 59.5±2.7
- number of PMFs three weeks after treatment ([3]; mouse, in vivo): 32±2.12
- ratio between growing and dormant follicles ([3]; mouse, in vivo): 1.31
- total number of growing follicles 3 days after Cy treatment ([3]; mouse, in vivo): 78.5±6.1
- relative band intensity of phosphorylated mTOR (pmTOR/mTOR ratio) [4]: 1.44
- Granulosa cells in primary follicles, Extensive proliferation ([5]; mouse, in vivo): 21%
- Granulosa cells in primary follicles, Mild proliferation ([5]; mouse, in vivo): 63%
- Granulosa cells in primary follicles, No proliferation ([5]; mouse, in vivo): 16%
- primary follicles classified as proliferating (either mild or extensive proliferation) ([5]; mouse, in vivo): 84%
- relative band intensity of phosphorylated rpS6 (prpS6/rpS6 ratio) [6]: 1.88
- mean litter size [7]: 4.62

Structure (SMILES): CO[C@H]1C[C@@H]2CC[C@@H](C)[C@@](O)(O2)C(=O)C(=O)N2CCCC[C@H]2C(=O)O[C@H]([C@H](C)C[C@@H]2CC[C@@H](OC(=O)C(C)(CO)CO)[C@H](OC)C2)CC(=O)[C@H](C)/C=C(\C)[C@@H](O)[C@@H](OC)C(=O)[C@H](C)C[C@H](C)/C=C/C=C/C=C/1C [Tem, Temsirolimus]
- PMF oocytes stained positive for cPARP (apoptosis) [2]: 14%
- PMF count 21 days after Cy treatment ([3]; 8-week-old mice, single dose Cy 150 mg/kg, with or without Tem 5 mg/kg 5 doses, FIG. 3A): 122.5±1.7
- ratio between growing and dormant follicles ([3]; 3 days after Cy 150 mg/kg, with or without Tem, FIG. 3C): 0.66
- number of PMFs three weeks after treatment ([3]; Cy 150 mg/kg, with or without Tem and/or rAMH (5 μg/mouse, 5 doses), FIG. 4): 68.5±2.69
- PMFs 3 days after Cy treatment [3, 9]: 101.6±8.9
- total number of growing follicles 3 days after Cy treatment [3, 9]: 65.6±5.2
- PMF loss ([3]; three weeks after Cy 150 mg/kg, with or without co-treatment, FIG. 4): 52%
- relative band intensity of phosphorylated mTOR (pmTOR/mTOR ratio) [4]: 0.57
- PMFs on day 7 of culture [8]: 124±5.9
- Granulosa cells in primary follicles, Mild proliferation ([5]; Ki-67, 1-2 granulosa cells stained, ovaries removed 24 hours after Cy 150 mg/kg or PBS): 22%
- Granulosa cells in primary follicles, Extensive proliferation ([5]; Ki-67, 3 or more granulosa cells stained, ovaries removed 24 hours after Cy 150 mg/kg or PBS): 5%
- primary follicles classified as proliferating (either mild or extensive proliferation) ([5]; Ki-67, 24 hours after Cy, alone or co-treated): 32%
- Granulosa cells in primary follicles, No proliferation ([5]; Ki-67, ovaries removed 24 hours after Cy 150 mg/kg or PBS): 73%
- relative band intensity of phosphorylated rpS6 (prpS6/rpS6 ratio) [6]: 0.3
